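48-hour exposure; five concentrations; linearly interpolated endpoints. GI50 = concentration required for 50% inhibition of growth.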 The source made the active and inactive calls. Rule as the data show it: active = GI50 up to about 1.1 µM and inactive = higher.
Legend:
Assay in all cases: NCI anticancer screen, dose series, 48 h
[1] = tested on: CAKI-1
[2] = tested on: CCRF-CEM
[3] = tested on: DU-145
[4] = tested on: EKVX
[5] = tested on: HCT-15
[6] = tested on: IGROV-1
[7] = tested on: K562
[8] = tested on: M14
[9] = tested on: MCF7
[10] = tested on: MDA-MB-231
[11] = tested on: NCI-H23
[12] = tested on: OVCAR-4
[13] = tested on: OVCAR-8
[14] = tested on: SK-MEL-5
[15] = tested on: SW-620
[16] = tested on: TK-10
[17] = tested on: U-251
[18] = tested on: UO-31
[19] = tested on: HCC 2998
[20] = tested on: SNB-75

Row | SMILES | GI50 [1] | GI50 [2] | GI50 [3] | GI50 [4] | GI50 [5] | GI50 [6] | GI50 [7] | GI50 [8] | GI50 [9] | GI50 [10] | GI50 [11] | GI50 [12] | GI50 [13] | GI50 [14] | GI50 [15] | GI50 [16] | GI50 [17] | GI50 [18] | GI50 [19] | GI50 [20]
1 | Cc1cc(C)cc(C(=N)c2ccccc2Cc2cccc3ccccc23)c1 | 19.5 µM (inactive) | 9.73 µM (inactive) | 16.2 µM (inactive) | 16.7 µM (inactive) | 16.1 µM | 17.4 µM (inactive) | 16.3 µM (inactive) | 16.5 µM (inactive) | 16.2 µM (inactive) | > 100 µM (inactive) | 15.7 µM (inactive) | 15.8 µM (inactive) | 18 µM (inactive) | 16.6 µM (inactive) | 15.2 µM (inactive) | 25.6 µM (inactive) | 40.6 µM (inactive) | 26.4 µM (inactive) |  | 
2 | COP1(=O)OCc2cnccc2O1 (stereo not given) | > 100 µM (inactive) |  |  | > 100 µM (inactive) | > 100 µM | > 100 µM (inactive) | > 100 µM (inactive) | > 100 µM (inactive) | > 100 µM (inactive) | > 100 µM (inactive) | > 100 µM (inactive) | > 100 µM (inactive) | > 100 µM (inactive) | > 100 µM (inactive) | > 100 µM (inactive) | > 100 µM (inactive) | > 100 µM (inactive) | > 100 µM (inactive) | > 100 µM (inactive) | > 100 µM (inactive)
3 | CC(=O)O[C@@H]1O[Si](C(C)(C)C)(C(C)(C)C)[C@H](C)[C@H]1C | > 100 µM (inactive) | 40.6 µM (inactive) |  | 41.7 µM (inactive) | 29.9 µM | 21.1 µM (inactive) | 31.8 µM (inactive) | 38.6 µM (inactive) | 19.1 µM (inactive) | > 100 µM (inactive) | > 100 µM (inactive) | > 100 µM (inactive) | > 100 µM (inactive) | 26.1 µM (inactive) | 40 µM (inactive) | > 100 µM (inactive) | 43.7 µM (inactive) | > 100 µM (inactive) | 92.7 µM (inactive) | 6.62 µM (inactive)
4 | CCOC(=O)c1nc2ccccc2nc1Oc1ccc(C#N)cc1 |  | > 100 µM (inactive) | > 100 µM (inactive) | > 100 µM (inactive) | > 100 µM | > 100 µM (inactive) | > 100 µM (inactive) | > 100 µM (inactive) | > 100 µM (inactive) | > 10 µM (inactive) |  | > 100 µM (inactive) | > 100 µM (inactive) | > 100 µM (inactive) | > 100 µM (inactive) | > 100 µM (inactive) | > 100 µM (inactive) | > 100 µM (inactive) |  | 
5 | Cc1cc(/N=C/c2ccc(F)cc2)n(-c2ccccc2)n1 | > 100 µM (inactive) | 34.6 µM (inactive) | > 100 µM (inactive) | 66.7 µM (inactive) | 48.2 µM | 84.3 µM (inactive) | 59.3 µM (inactive) | > 100 µM (inactive) | 46.7 µM (inactive) | > 100 µM (inactive) | 82.2 µM (inactive) | 75.7 µM (inactive) | > 100 µM (inactive) | 52.5 µM (inactive) | > 100 µM (inactive) | 57 µM (inactive) | > 100 µM (inactive) | > 100 µM (inactive) |  | 56.1 µM (inactive)
6 | CN(C)CCCNCc1cccc2ccccc12 |  | > 100 µM (inactive) | > 100 µM (inactive) | > 100 µM (inactive) | > 100 µM | > 100 µM (inactive) | > 100 µM (inactive) | 66.5 µM (inactive) | > 100 µM (inactive) | > 100 µM (inactive) | > 100 µM (inactive) | > 100 µM (inactive) | > 100 µM (inactive) | > 100 µM (inactive) | > 100 µM (inactive) | > 100 µM (inactive) | > 100 µM (inactive) | > 100 µM (inactive) |  | > 100 µM (inactive)
7 | COc1ccc(/C=C2\CCC(C)C3=C2N=c2s/c(=C/c4cccc(Br)c4)c(=O)n2C3c2ccc(OC)c(OC)c2)cc1OC (stereo not given) | > 100 µM (inactive) | > 100 µM (inactive) | > 100 µM (inactive) | > 100 µM (inactive) | > 100 µM | > 100 µM (inactive) | > 100 µM (inactive) | > 100 µM (inactive) | > 100 µM (inactive) | > 100 µM (inactive) |  | > 100 µM (inactive) | > 100 µM (inactive) | > 100 µM (inactive) | > 100 µM (inactive) | > 100 µM (inactive) | > 100 µM (inactive) |  |  | 
8 | Cc1cc(-c2nc3ccccc3s2)ccc1NS(=O)(=O)O | > 7.21 µM (inactive) | > 4.65 µM (inactive) | > 22.2 µM (inactive) |  | > 4.65 µM | 1.11 µM (active) | 4.65 µM (inactive) | > 29.5 µM (inactive) | < 0.0382 µM (active) | > 24.1 µM (inactive) | > 7.11 µM (inactive) |  | > 4.85 µM (inactive) | > 100 µM (inactive) | > 4.65 µM (inactive) | > 26.1 µM (inactive) |  | > 7.82 µM (inactive) |  | > 67 µM (inactive)

Reference: ChEMBL document CHEMBL1201862, “PubChem BioAssay data set” (2004)
